Assay results as given in patent US20260055110A1 (Azura Ophthalmics Ltd., priority 2021, published 2026).
pEC50: −log10 of the molar value.

Tests used:
[1] = system: keratoconjunctivitis and dry eye disease; settings: humans and/or dogs; Kravetz de Oliveira 2019; cited from earlier work
[2] = biological target: T1, glucocorticoid receptor (GR) (Homo sapiens, UniProt P04150); test: Glucocorticoid Binding Assay, GR (h) (agonist radioligand); settings: IM9 cytosol, 3H-dexamethasone competitive binding
T1 construct: by mixing 1 mg of IM9 cytosol; host or cells: IM9 human lymphoblast cell cytosol
T1 sequence (P04150 1-777): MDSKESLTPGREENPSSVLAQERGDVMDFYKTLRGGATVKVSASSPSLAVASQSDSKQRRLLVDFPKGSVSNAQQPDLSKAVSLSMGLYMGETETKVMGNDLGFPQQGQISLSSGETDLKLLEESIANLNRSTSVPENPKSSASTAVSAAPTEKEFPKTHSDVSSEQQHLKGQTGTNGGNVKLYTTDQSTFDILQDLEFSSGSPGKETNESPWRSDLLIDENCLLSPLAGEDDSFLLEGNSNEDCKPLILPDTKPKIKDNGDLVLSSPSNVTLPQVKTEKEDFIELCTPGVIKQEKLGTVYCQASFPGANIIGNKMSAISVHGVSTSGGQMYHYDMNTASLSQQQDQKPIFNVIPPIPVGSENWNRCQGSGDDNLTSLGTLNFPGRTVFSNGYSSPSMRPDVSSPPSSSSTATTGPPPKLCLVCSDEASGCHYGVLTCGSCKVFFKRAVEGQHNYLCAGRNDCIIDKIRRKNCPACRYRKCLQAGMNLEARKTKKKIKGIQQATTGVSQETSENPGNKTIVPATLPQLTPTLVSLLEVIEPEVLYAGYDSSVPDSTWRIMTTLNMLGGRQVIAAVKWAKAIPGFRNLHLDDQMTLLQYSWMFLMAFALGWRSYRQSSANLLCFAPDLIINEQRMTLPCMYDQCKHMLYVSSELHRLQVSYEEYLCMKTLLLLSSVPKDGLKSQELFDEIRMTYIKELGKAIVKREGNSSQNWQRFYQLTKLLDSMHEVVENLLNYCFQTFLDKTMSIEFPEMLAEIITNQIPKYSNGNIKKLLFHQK
Method: GR (h) (agonist radioligand) assay performed by Eurofins Cerep, France using a method similar to the one described hereinbelow.
The human lymphoblast cell line IM9 is used as a source of the soluble glucocorticoid receptor (GR). The cells are grown to densities of 1 to 10×10^5 cells per milliliter in RPMI 1640 media containing 10% fetal bovine serum, penicillin (100 U/ml), streptomycin (100 μg/ml), and 2 mM L-glutamine at […] and 7% CO2 in a humidified incubator. The IM9 cells are harvested from the media by centrifugation for 10 minutes at 1500 g. Cells are washed in 12 volumes of Dulbecco's phosphate-buffered saline (PBS) and re-pelleted. Washed cells are resuspended in five to six volumes (per volume of packed cells) of homogenization buffer (10 mM TES, 10 mM sodium molybdate, 1 mM EDTA, pH 7.4, 20 mM 2-mercaptoethanol, and 10% glycerol), and the cells are broken by nitrogen cavitation using 2×15 minutes at 600 to 750 psi nitrogen in the N2 cavitator at 0° C. Cell disruption is confirmed by Hoffman contrast microscopy using a Nikon Diaphot. The broken cell preparation is then centrifuged at 27,000 g for 15 minutes, and the resultant supernatant was centrifuged at 103,000 g for 60 minutes at 4° C. The amount of protein in the supernatant fraction is determined using a BCA assay kit with a bovine serum albumin standard. Aliquots of the supernatant fraction are snap frozen in a dry ice-acetone bath and stored at −70° C. Competitive binding assays are done in duplicate in homogenization buffer (total volume of […]) by mixing 1 mg of IM9 cytosol, 0.05/ρCi (3 nM) of ^3H-dexamethasone, and Compounds described herein (10^−5 to 10^−11 M). After incubation at 0° C. for 16 to 18 hours, the assay is stopped by the addition of […] of a charcoal-dextran mixture (2% activated charcoal, 0.5% dextran in 10 mM Tris, 1 mM EDTA, pH 7.4). The assay mixture is further incubated at 0° C. for 10 minutes before being centrifuged for 5 minutes at 8200 g. A 100-μl sample of the supernatant (protein-bound steroid fraction) is assayed for radioactivity by liquid scintillation spectrometry, and the IC50 values were determined graphically.
In some instances, an ester is active in the glucocorticoid binding assay. In some instances, an ester retains activity, such as when attached to a keratolytic agent (or a radical thereof), in the glucocorticoid binding assay.

[3] = system: dry eye; settings: murine model; Sadrai et al 2012; cited from earlier work
[4] = system: Rabbit Cornea Esterase; test: Rabbit Cornea Homogenate Stability Assay (Rabbit Cornea Esterase Assay); assay type: in vitro ADME; settings: Table 13, rabbit breed not given
Method: Example 1: Rabbit Cornea Homogenate Stability Assay […]
Three to four rabbit corneas (e.g., New Zealand Whites (NZW) or Dutch Belted (DB)) of approx. 50 mg each were sliced and scraped with a scalpel and tweezers until reduced to small (1-3 mm), thin pieces. These were transferred into a glass vial containing approximately 2 mL of cold DPBS pH 7.4 buffer.
Sample was cooled intermittently on ice and shear homogenized for 3 minutes, then centrifuged for 3 min at 13,000 g. The supernatant was pipetted off into a vial, and total protein concentration determined at 280 nm. Sample was stored at −78° C.
10 mM Compound DMSO stocks were diluted to 10 μM in a glass vial: 10 μL of 10 mM Compound stock was added to 9,990 μl 50 mM DPBS, pH 7.4 buffer. Esterase homogenate was diluted to 300 ng/μl and 900 ng/μL in DPBS.
A heater shaker was set to 37° C. Into a suitable 96 well plate (Run Plate), 70 μL of 300 or 900 ng/μl esterase homogenate was pipetted into two rows as compounds were analyzed in duplicate (2 min, 5 min, 10 min, 20 min and 45 min). The plate was sealed and then warmed at 37° C. for 5 min.
Two 96 deep-well plates were put on ice (Kill Plates). To these, 990 μL of 50:50 MeCN—H2O were added to required rows, labelled 0 min 2 min, 5 min, 10 min, 20 min and 45 min. The plates were covered to minimize evaporation.
To both rows of the Run Plate, 70 μL of 10 μM compound solution was added. At the appropriate time point, 10 μL of the assay mixture was added to the matching kill plate well containing 990 μL of 50:50 cold MeCN—H2O. Samples were analyzed as soon as practicable by UPLC-MS (Waters Xevo TQ-S).
A heater shaker was set to 37° C. Into a suitable 96 well plate (Run Plate), 80 μL of 300 or 900 ng/μL esterase homogenate was pipetted into two rows as compounds were analyzed in duplicate (2 min, 5 min, 10 min, 20 min and 45 min). The plate was sealed and then warmed at 37° C. for 5 min.
Two 96 shallow-well plates were placed on ice (Kill Plates). To these, 180 μL of 60:40 MeCN-H2O+0.1% acetic acid are added to required rows. The plates were sealed to minimize evaporation.
To both rows of the Run Plate, 80 μL of 10 μM compound solution was added. At the appropriate time point, 20 μL of the assay mixture was added to the matching kill plate well containing 180 μL of 60:40 cold MeCN-H2O+0.1% acetic acid. For lipoic acid analysis, samples were analyzed as soon as practicable by LCMS (Waters Xevo TQ-S). For parent conjugate and parent analysis the samples are diluted further 1 in 10: 20 μL supernatant is added to 180 μL of 50:50 MeCN—H2O.

[5] = system: dermatitis, keratoconjunctivitis, dry eye disease; settings: humans and/or dogs; literature; cited from earlier work
[6] = system: alopecia; settings: humans and murine models; NCT02974868; cited from earlier work
[7] = system: psoriasis, alopecia, uveitis; settings: murine models; Mesa 2010, Falto-Aizpurua et al 2014, Lin et al 2021; cited from earlier work
[8] = system: psoriasis, alopecia, dermatitis, dry eye disease; settings: humans and/or murine models; literature; cited from earlier work
[9] = system: uveitis; settings: humans and/or murine models; Gangaputra 2009; cited from earlier work

C=CC[C@H]1/C=C(/C)C[C@@H](C)C[C@@H](OC)[C@@H]2O[C@@](O)(C(=O)C(=O)N3CCCCC3C(=O)O[C@H](/C(C)=C/[C@@H]3CC[C@@H](O)[C@H](OC)C3)[C@H](C)[C@@H](O)CC1=O)[C@H](C)C[C@@H]2OC (single isomer, unassigned; (-)) [Tacrolimus]
objective signs of keratoconjunctivitis and dry eye disease [1]: improvements in objective signs

CC(=O)N1[C@H](C(=O)O[C@]2(C(=O)O)[C@H](C)C[C@H]3[C@@H]4C[C@H](F)C5=CC(=O)C=C[C@]5(C)[C@@]4(F)[C@@H](O)C[C@@]32C)CSC1(C)C [Chemical Synthesis Example 70, (6S,8S,9R,10S,11S,13S,14S,16R,17R)-17-(((R)-3-Acetyl-2,2-dimethylthiazolidine-4-carbonyl)oxy)-6,9-difluoro-11-hydroxy-10,13,16-trimethyl-3-oxo-6,7,8,9,10,11,12,13,14,15,16,17-dodecahydro-3H-cyclopenta[a]phenanthrene-17-carboxylic acid]
pEC50 [2]: < 7.00

COc1ccc([C@]2(C#N)CC[C@@H](C(=O)O)CC2)cc1OC1CCCC1 [Cilomilast, cis-4-cyano-4-[3-(cyclopentyloxy)-4-methoxyphenyl]cyclohexanecarboxylic acid]
objective signs of dry eye [3]: improvements in objective signs

C[C@@H]1C[C@H]2[C@@H]3C[C@H](F)C4=CC(=O)C=C[C@]4(C)[C@@]3(F)[C@@H](O)C[C@]2(C)[C@@]1(OC(=O)CCCC[C@@H]1CCSS1)C(=O)OCC#N [Compound 73A, Cyanomethyl (6S,8S,9R,10S,11S,13S,14S,16R,17R)-17-((5-((R)-1,2-dithiolan-3-yl)pentanoyl)oxy)-6,9-difluoro-11-hydroxy-10,13,16-trimethyl-3-oxo-6,7,8,9,10,11,12,13,14,15,16,17-dodecahydro-3H-cyclopenta[a]phenanthrene-17-carboxylate]
pEC50 [2]: < 7.00
Esterase (0.15 mg/mL) % parent released after 45 min ([4]; rabbit cornea homogenate 0.15 mg/mL): A (<25%)
Esterase (0.45 mg/mL) % parent released after 45 min ([4]; rabbit cornea homogenate 0.45 mg/mL): A (<25%)

CNS(=O)(=O)C[C@H]1CC[C@H](N(C)c2ncnc3[nH]ccc23)CC1 [Oclacitinib, N-methyl{trans-4-[methyl(7H-pyrrolo[2,3-d]pyrimidin-4-yl)amino]cyclohexyl}methanesulfonamide]
objective signs of dermatitis, keratoconjunctivitis and dry eye disease [5]: improvements in objective signs

C=CC(=O)N1C[C@H](Nc2ncnc3[nH]ccc23)CC[C@@H]1C [Ritlecitinib, 1-((2S,5R)-5-((7H-pyrrolo[2,3-d]pyrimidin-4-yl)amino)-2-methylpiperidin-1-yl)prop-2-en-1-one]
objective signs of alopecia [6]: improvements in objective signs

N#CC[C@H](C1CCCC1)n1cc(-c2ncnc3[nH]ccc23)cn1 [Ruxolitinib, (3R)-3-Cyclopentyl-3-[4-(7H-pyrrolo[2,3-d]pyrimidin-4-yl)pyrazol-1-yl]propanenitrile]
objective signs of psoriasis, alopecia and uveitis [7]: improvements in objective signs

C[C@@H]1CCN(C(=O)CC#N)C[C@@H]1N(C)c1ncnc2[nH]ccc12 [Tofacitinib, 3-[(3R,4R)-4-Methyl-3-[methyl(7H-pyrrolo[2,3-d]pyrimidin-4-yl)amino]piperidin-1-yl]-3-oxopropanenitrile]
objective signs of psoriasis, alopecia, dermatitis and dry eye disease [8]: improvements in objective signs

CN(Cc1cnc2nc(N)nc(N)c2n1)c1ccc(C(=O)N[C@@H](CCC(=O)O)C(=O)O)cc1 [methotrexate, (2S)-2-[(4-{[(2,4-Diaminopteridin-6-yl)methyl](methyl)amino}benzoyl)amino]pentanedioic acid]
objective signs of uveitis [9]: improvements in objective signs
